The nature of this data set: solubility in ethanol by conventional methods. Type of data set: physicochemical. To be noted: organic solvent or mixture, separate experiments by conventional methods. The method, then: The invention was tested on the sulfisoxazole/polyvinylpyrrolidone system in ethanol where sulfisoxazole was the active ingredient and polyvinylpyrrolidone was the carrier of choice. The total time required to evaporate ethanol for each sample was less than 30 seconds. […] This information is important because these solubility parameters determine the minimum amount (volume) of solvent required to co-dissolve the active ingredient and the carrier molecules. Next eight ethanol solutions were prepared of different sulfisoxazole to polyvinylpyrrolidone weight (molar) ratios.

Values after ≈ are worked out from the molar mass of the structure shown.

Drawing on patent US20030129753A1, “Chemical screening method” (priority 2002, published 2003), this text covers solubility for one compound.

For orientation: solubility means the concentration that dissolves in the medium under given conditions.

For the compound `Cc1noc(NS(=O)(=O)c2ccc(N)cc2)c1C` [sulfisoxazole], the solubility turned out to be 16 mg/mL (≈ 59.9 mM).
